{"source": "patent US20260184807A1", "about": "“Methods for Treating Rheumatoid Arthritis Using a Syndecan-1 Inhibitor or Syntenin-1 Inhibitor” (The United States Government as represented by the …, priority 2022, published 2026)", "molecules": {"B1": {"name": "Syntenin-1: Syntenin-1 protein (1000 ng/ml, NKMAX Co.) used as stimulus (protein, UniProt O00560 2-298, looked up)", "Syntenin-1": "SLYPSLEDLKVDKVIQAQTAFSANPANPAILSEASAPIPHDGNLYPRLYPELSQYMGLSLNEEEIRANVAVVSGAPLQGQLVARPSSINYMVAPVTGNDVGIRRAEIKQGIREVILCKDQDGKIGLRLKSIDNGIFVQLVQANSPASLVGLRFGDQVLQINGENCAGWSSDKAHKVLKQAFGEKITMTIRDRPFERTITMHKDSTGHVGFIFKNGKITSIVKDSSAARNGLLTEHNICEINGQNVIGLKDSQIADILSTSGTVVTITIMPAFIFEHIIKRMAPSIMKSLMDHTIPEV"}}, "key": {"MΦs": {"tested_on": "MΦs", "details": "classical and Syntenin-1-differentiated MΦs; cited from earlier work"}, "RA FLS [1]": {"tested_on": "RA FLS", "details": "cited from earlier work"}, "RA FLS [2]": {"tested_on": "RA FLS", "details": "IL-6/IFNγ signaling; cited from earlier work"}, "RA MΦs": {"tested_on": "RA MΦs", "test": "Syntenin-1 stimulation and inhibition in RA MΦs (qRT-PCR, ELISA)", "assay_type": "cell-based, human", "details": "Syntenin-1 1000 ng/mL, 6 h or 24 h vs PBS, FIGS. 2B-2E", "description": "FIGS. 2A-K show ligation of Syntenin-1 to SDC-1 expands RA MΦ inflammatory profile independent of IL 5R or PDZ1 function. […] Transcription of IRFs (FIG. 2B) and the inflammatory monokines (FIG. 2C) was assessed by qRT-PCR (n=3-10), and protein levels of IL-6 (FIG. 2D) or TNFα (FIG. 2E) were determined in the conditioned media by ELISA (n=10). […] Data are presented as mean±SEM: significant differences were determined by the Mann-Whitney test, two-way-ANOVA, or one-way ANOVA. *p<0.05, **p<0.01, ***p<0.001, ****p<0.0001. ANOVA, analysis of variance.\n(B, C) RA MΦs were treated with PBS (ctrl) or Syntenin-1 (1000 ng/mL) for 6 hours and transcription levels of HIF1α (n=10) (FIG. 3B). GLUT1, RAPTOR, HK2, PFK2, PDK1, PKM2 (FIG. 3C) were quantified by qRT-PCR (n=6). […] FIGS. 3H, 3I) after 24 hours impact of treatment was determined on CD14+CD86+ GLUT1+ frequency by flow cytometry (n=4-5). […] Data are presented as mean±SEM; significant differences were determined by Mann-Whitney test, Student's t-test, two-way-ANOVA, or one-way ANOVA. *p<0.05, **p<0.01, ***p<0.001, ****p<0.0001. ANOVA, analysis of variance.\nQuantitative Real-Time PCR. […] Transcription to cDNA and subsequent quantitative real-time PCR analysis was performed using the High-Capacity cDNA Reverse Transcription Kit (Applied Biosystems) and TaqMan Gene Expression Master Mix (Applied Biosystems). […]"}}}
{"molecule": "O=CC[C@@H](O)[C@H](O)[C@H](O)CO", "note": "[2-DG, 2-deoxy-D-glucose]", "values": [{"measurement": "metabolic activity expanded via GLUT1, LDHA, and lactate", "setting": "MΦs", "value": "impaired"}, {"measurement": "GLUT1 and HK2 transcriptional upregulation", "setting": "RA FLS [1]; LPS/IFNγ reprogrammed RA FLS", "value": "suppressed"}, {"measurement": "upregulation of IRF1/5/7 along with IL-6, IL-8, and CCL2", "setting": "RA FLS [1]; RA FLS differentiated by LPS/IFNγ", "value": "reversed"}, {"measurement": "citrate accumulation", "setting": "RA FLS [1]; RA FLS reconfigured by LPS/IFNγ", "value": "resolved"}]}
{"molecule": "C[C@@H]1CCN(C(=O)CC#N)C[C@@H]1N(C)c1ncnc2[nH]ccc12", "note": "[Tofacitinib]", "values": [{"measurement": "RA FLS migration", "setting": "RA FLS [2]", "value": "impaired"}]}
{"molecule": "B1", "values": [{"measurement": "expansion of monokines IL-1, TNF-α, IL-6, IL-8 and CCL2", "setting": "RA MΦs", "value": "> 7", "unit": "fold"}]}
